In patent US9315465B2, “Photostable AIE luminogens for specific mitochondrial imaging and its method of manufacturing thereof” (THE HONG KONG UNIVERSITY OF SCIENCE AND TECHNOLOGY, priority 2013, dated 2016):

What was measured:
mitochondria = test: Effect of CCCP on mitochondria (pH, ΔΨm, morphology); type: cell-based
Method: Excitation wavelength: 405 nm; emission filter: 449-520 nm; irradiation time: 15.49 sec/scan.
(§1) To test the tolerance of TPE-TPP and MT to the change of mitochondrial ΔΨm, carbonyl cyanide m-chlorophenylhydrazone (CCCP) was used to treat the cells prior to the staining procedure. CCCP is an uncoupler that causes rapid acidification of the mitochondria and dysfunction of ATP synthase resulting in the decrease of the mitochondrial ΔΨm. Upon treatment with 20 μM CCCP, the pH of mitochondria decreased about 0.7 and ΔΨm thus decreased around 40 mV according to the Nernst equation. […] Since the targeting of MT to mitochondria is driven by the huge ΔΨm, the decrease of ΔΨm, will affect the direction and accumulation of cationic MT to mitochondria. It was expected that similar phenomena would be observed for TPE-TPP as it shares a similar working principle.
The high tolerance of TPE-TPP to the decrease of ΔΨm enables the observation of change of mitochondrial morphology induced by CCCP. […] The early stage of apoptosis involves remodeling of mitochondrial cristae and the consequent occurrence of morphological change of mitochondria, which is considered as an irreversible process associated with the collapse of ΔΨm. TPE-TPP has excellent specificity to mitochondria with outstanding photostability and tolerance to microenvironment change, representing a potential candidate of tracking agent for apoptosis studies.

[1] = system: mitochondria of CCCP-treated HeLa cells; test: Tolerance of mitochondrial staining to decrease of mitochondrial ΔΨm (CCCP-treated cells); type: cell-based; conditions: HeLa cells treated with 10 μM CCCP prior to staining
From the text: Excitation wavelength: 540-580 nm (for MT) and 330-385 nm (for TPE-TPP).
as §1, with “Upon treatment with 20 μM CCCP, the pH of mitochondria decreased about 0.7 and ΔΨm thus decreased around 40 mV according to the Nernst equation.” left out

[2] = system: mitochondria of the living HeLa cells; test: Mitochondria staining and co-localization by fluorescence microscopy; type: cell-based
Method: TPE-TPP was then assessed for its ability to localize and stain mitochondria in living cells by fluorescence microscope. Cervical cancer HeLa cells were incubated with 5 μM TPE-TPP for 1 h and excess dyes were washed away by buffer solution.
Pearson's correlation coefficient (Rr; from +1 to −1), which indicates the degree of linear dependence between two variables, is used to quantify the overlapping of the staining region between TPE-TPP and MT.
In FIG. 7A, cells were incubated with TPE-TPP for 1 h.
An AIE luminogen targeting mitochondria specifically with red fluorescence emission was also synthesized, i.e., TPE-MitoR, (E)-1-ethyl-3,3-dimethyl-2-(2-(4′(1,2,2-triphenylvinyl)-[1,1′-biphenyl]-4-yl)vinyl)-3H-indol-1-ium hexafluorophosphate. […] TPE-MitoR's ability for tracking mitochondria is evaluated by colocalizing with TPE-TPP (FIG. 14).
In addition, cell fixation is important for sample preserving.

[3] = system: reactive oxygen species (ROS); test: ROS detection with H2DCFDA under UV irradiation; conditions: solution of TPE-IQ 10 μM and H2DCFDA 1 μM, intensity at 521 nm
Method: Concentration of TPE-IQ: 10 μM; concentration of H2DCFDA: 1 μM.
(§2) With UV irradiation, the morphology of mitochondria changed gradually, indicating the initiation of the cell apoptosis process. […] To understand the underlying mechanism of TPE-IQ induced cell apoptosis, reactive oxygen species (ROS) detection agent H2DCFDA was utilized. […] This means that TPE-IQ could be utilized as a sensitizer for ROS generation, to induce cell apoptosis. Considering the mitochondria targeting of the probe, TPE-IQ could be used as an apoptosis inducer while enabling observation of the morphology change of the mitochondria at the same time. Besides, the probe may be utilized in phototherapy for selectively killing specific cells, while allowing for the study of how cells communicate when one cell undergoes the apoptosis process.

HeLa cell = test: UV-irradiation induced mitochondrial morphology change / apoptosis in stained cells; type: cell-based; conditions: HeLa cell stained with TPE-IQ, UV 6 s then 15 min in the dark
From the text: (A) 1 s; (B) 2 s; (C) 6 s; (D) 11 s.
as §2

[4] = From the text: The TPE core was synthesized simply from a McMurry coupling reaction. TPP was attached through bromination and subsequent reaction with triphenylphosphine.
[5] = Particle size analysis of nanoaggregates; type: physicochemical; conditions: aqueous solution containing 0.1% DMSO, identical condition for cell staining
From the text: The DMF solution of TPE-TPP was almost non-emissive while the solid state is strongly luminescent at 466 nm. […] The scheme of synthesis of said TPP-functionalized TPE is as follow: […]

HeLa cells = test: Cytotoxicity by MTT assay; type: cell-based; conditions: added to the culture medium
Method: Applying an organelle tracker into living sample, the cytotoxicity of the probe, TPE-TPP, was evaluated using the 3-(4,5-dimethyl-2-thiazolyl)-2,5-diphenyltetrazolium bromide (MTT) assay (FIG. 6).

## N#CC(C#N)=NNc1cccc(Cl)c1 [CCCP, carbonyl cyanide m-chlorophenylhydrazone]
mitochondria; 20 μM CCCP
  decrease of pH of mitochondria: about 0.7
mitochondria; 20 μM CCCP, according to the Nernst equation
  decrease of ΔΨm: around 40 mV
mitochondria; living HeLa cells exposed to CCCP (20 μM), stained with TPE-TPP
  change of mitochondrial morphology: gradually transformed to small and dispersed fragments

## CN1C(=CC=Cc2n(Cc3ccc(CCl)cc3)c3cc(Cl)c(Cl)cc3[n+]2Cc2ccc(CCl)cc2)C(C)(C)c2ccccc21.[Cl-] [MT]
[1]
  specificity and sensitivity to mitochondria in CCCP-treated cells: no more specificity to mitochondria and the sensitivity became worse

## CCC[n+]1cc2ccc(C(=C(c3ccccc3)c3ccccc3)c3ccccc3)cc2c(-c2ccccc2)c1-c1ccccc1 [TPE-IQ, 3,4-diphenyl-2-propyl-6-(1,2,2-triphenylvinyl)isoquinolin-2-ium tetrafluoroborate]
[2]; HeLa cells after 4% paraformaldehyde (PFA) fixation for 50 min
  mitochondria targeting in fixed cells: could still target to the mitochondria
[2]; HeLa cells, 200 nM
  incubation time sufficient for lighting up the mitochondria: 10 min
[2]; HeLa cells, 500 nM, 1 min incubation
  emission from the mitochondria of the cells: strong emission
[3]
  H2DCFDA fluorescence (ROS production) with continuous UV irradiation: increased gradually
HeLa cell
  mitochondrial morphology after UV irradiation: changed substantially

## CC[N+]1=C(/C=C/c2ccc(-c3ccc(C(=C(c4ccccc4)c4ccccc4)c4ccccc4)cc3)cc2)C(C)(C)c2ccccc21 [TPE-MitoR, (E)-1-ethyl-3,3-dimethyl-2-(2-(4′(1,2,2-triphenylvinyl)-[1,1′-biphenyl]-4-yl)vinyl)-3H-indol-1-ium hexafluorophosphate]
[2]; HeLa cells, 5 μM, 30 min
  ability for tracking mitochondria (colocalization with TPE-TPP): promising result in locating mitochondria

## [Br-].[Br-].c1ccc(C(=C(c2ccccc2)c2ccc(C[P+](c3ccccc3)(c3ccccc3)c3ccccc3)cc2)c2ccc(C[P+](c3ccccc3)(c3ccccc3)c3ccccc3)cc2)cc1 [TPE-TPP, Bis(Triphenylphosphonium) Tetraphenylethene]
[4]; aqueous solution
  solubility in aqueous solution: relatively poor solubility
[4]; polar solvents such as DMF and DMSO
  solubility in polar solvents: completely soluble
[5]
  average particle size: 144 nm
HeLa cells
  concentration up to which cell viability is not significantly altered: up to 7.5 μM
[2]; HeLa cells, 5 μM, 1 h
  localization of staining in living cells: stains specifically the mitochondrial region
[2]; HeLa cells, data not shown
  staining time sufficient to enter and light up mitochondria: 15 min
[2]; co-staining in living HeLa cells, TPE-TPP 5 μM, MT 50 nM
  Pearson's correlation coefficient (Rr) of overlap with MitoTracker Red FM (MT): 0.96
[1]
  specificity and sensitivity to mitochondria in CCCP-treated cells: perfectly retained
